Results taken from paper PMC11233931, “Remodeling tumor‐associated macrophage for anti‐cancer effects by rational design of irreversible inhibition of mitogen‐activated protein kinase‐activated protein kinase 2” (MedComm, 2024).

Tests used:
Test in all cases: Eurofins kinase selectivity profile against 380 other human recombinant kinases (Table S2)
Assay type in all cases: biochemical
[1] = molecular target: T1, 380 human recombinant protein kinases (Homo sapiens, UniProt P35968); conditions: KDR(h), read-out: Inhibition rate
T1 construct: purchased Eurofins (Celle Lévescault)
T1 sequence (P35968 20-1356): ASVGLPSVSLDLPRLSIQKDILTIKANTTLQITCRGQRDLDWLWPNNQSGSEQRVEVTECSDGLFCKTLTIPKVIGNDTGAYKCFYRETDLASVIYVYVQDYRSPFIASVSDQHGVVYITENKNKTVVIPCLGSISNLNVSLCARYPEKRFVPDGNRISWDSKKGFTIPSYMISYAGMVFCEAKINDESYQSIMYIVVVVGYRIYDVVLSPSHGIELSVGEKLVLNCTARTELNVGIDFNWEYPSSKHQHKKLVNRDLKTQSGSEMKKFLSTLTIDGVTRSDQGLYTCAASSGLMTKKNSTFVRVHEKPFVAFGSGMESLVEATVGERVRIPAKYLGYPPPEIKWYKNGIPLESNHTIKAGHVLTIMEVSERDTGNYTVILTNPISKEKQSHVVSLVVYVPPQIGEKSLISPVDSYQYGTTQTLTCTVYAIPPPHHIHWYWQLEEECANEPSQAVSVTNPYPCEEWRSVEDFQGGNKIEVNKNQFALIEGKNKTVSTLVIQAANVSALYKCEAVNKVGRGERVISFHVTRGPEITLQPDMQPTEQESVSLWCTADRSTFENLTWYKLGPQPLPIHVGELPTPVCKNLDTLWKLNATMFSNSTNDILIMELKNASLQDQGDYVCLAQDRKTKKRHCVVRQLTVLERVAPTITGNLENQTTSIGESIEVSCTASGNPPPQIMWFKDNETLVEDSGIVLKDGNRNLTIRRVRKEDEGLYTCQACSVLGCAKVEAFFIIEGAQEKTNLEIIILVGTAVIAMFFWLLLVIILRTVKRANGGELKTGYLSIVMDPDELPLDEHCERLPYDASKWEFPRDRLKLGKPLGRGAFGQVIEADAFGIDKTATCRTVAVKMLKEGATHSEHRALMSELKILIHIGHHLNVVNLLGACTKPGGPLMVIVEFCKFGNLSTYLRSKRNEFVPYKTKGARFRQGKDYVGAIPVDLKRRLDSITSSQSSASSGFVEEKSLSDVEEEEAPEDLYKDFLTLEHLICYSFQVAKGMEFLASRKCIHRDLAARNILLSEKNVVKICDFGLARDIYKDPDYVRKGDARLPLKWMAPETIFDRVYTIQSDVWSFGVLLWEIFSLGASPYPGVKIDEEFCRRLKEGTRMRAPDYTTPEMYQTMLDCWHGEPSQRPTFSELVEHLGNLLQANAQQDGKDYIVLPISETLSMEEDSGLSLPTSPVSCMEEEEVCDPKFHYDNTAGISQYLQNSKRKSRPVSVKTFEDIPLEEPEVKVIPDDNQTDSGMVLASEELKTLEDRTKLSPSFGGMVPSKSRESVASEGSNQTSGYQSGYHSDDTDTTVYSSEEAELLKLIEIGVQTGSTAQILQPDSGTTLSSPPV
Summary of the method: (§1)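 Profiling against 380 human recombinant kinases carried out by Eurofins at various compound concentrations.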

[2] = molecular target: T2, 380 human recombinant protein kinases (Homo sapiens, UniProt P04626); conditions: ErbB2(h), read-out: Inhibition rate
T2 construct: purchased Eurofins (Celle Lévescault)
Summary of the method: as §1

[3] = molecular target: T3, 380 human recombinant protein kinases (Homo sapiens, UniProt P78362); conditions: SRPK2(h), read-out: Inhibition rate (%)
T3 construct: purchased Eurofins (Celle Lévescault)
Summary of the method: as §1

[4] = molecular target: T4, 380 human recombinant protein kinases (Homo sapiens, UniProt Q86Y07); conditions: VRK2(h), read-out: Inhibition rate (%)
T4 construct: purchased Eurofins (Celle Lévescault)
T4 sequence (Q86Y07 whole entry): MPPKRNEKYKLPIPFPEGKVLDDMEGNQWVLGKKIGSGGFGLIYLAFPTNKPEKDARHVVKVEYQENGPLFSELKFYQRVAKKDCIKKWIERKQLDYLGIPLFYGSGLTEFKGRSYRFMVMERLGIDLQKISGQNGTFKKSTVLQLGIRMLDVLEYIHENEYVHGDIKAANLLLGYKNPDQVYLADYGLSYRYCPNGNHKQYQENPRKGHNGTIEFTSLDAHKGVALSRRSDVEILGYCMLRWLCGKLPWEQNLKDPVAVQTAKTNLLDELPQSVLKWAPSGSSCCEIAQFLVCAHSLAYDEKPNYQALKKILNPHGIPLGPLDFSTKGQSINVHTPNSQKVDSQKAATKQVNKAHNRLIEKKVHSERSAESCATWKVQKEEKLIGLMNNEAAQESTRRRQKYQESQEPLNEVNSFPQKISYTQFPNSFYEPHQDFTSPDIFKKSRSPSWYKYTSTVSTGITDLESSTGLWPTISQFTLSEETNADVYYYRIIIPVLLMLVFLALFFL
Summary of the method: as §1

[5] = molecular target: T5, 380 human recombinant protein kinases (Homo sapiens, UniProt P51617); conditions: IRAK1(h), read-out: Inhibition rate
T5 construct: purchased Eurofins (Celle Lévescault)
T5 sequence (P51617 whole entry): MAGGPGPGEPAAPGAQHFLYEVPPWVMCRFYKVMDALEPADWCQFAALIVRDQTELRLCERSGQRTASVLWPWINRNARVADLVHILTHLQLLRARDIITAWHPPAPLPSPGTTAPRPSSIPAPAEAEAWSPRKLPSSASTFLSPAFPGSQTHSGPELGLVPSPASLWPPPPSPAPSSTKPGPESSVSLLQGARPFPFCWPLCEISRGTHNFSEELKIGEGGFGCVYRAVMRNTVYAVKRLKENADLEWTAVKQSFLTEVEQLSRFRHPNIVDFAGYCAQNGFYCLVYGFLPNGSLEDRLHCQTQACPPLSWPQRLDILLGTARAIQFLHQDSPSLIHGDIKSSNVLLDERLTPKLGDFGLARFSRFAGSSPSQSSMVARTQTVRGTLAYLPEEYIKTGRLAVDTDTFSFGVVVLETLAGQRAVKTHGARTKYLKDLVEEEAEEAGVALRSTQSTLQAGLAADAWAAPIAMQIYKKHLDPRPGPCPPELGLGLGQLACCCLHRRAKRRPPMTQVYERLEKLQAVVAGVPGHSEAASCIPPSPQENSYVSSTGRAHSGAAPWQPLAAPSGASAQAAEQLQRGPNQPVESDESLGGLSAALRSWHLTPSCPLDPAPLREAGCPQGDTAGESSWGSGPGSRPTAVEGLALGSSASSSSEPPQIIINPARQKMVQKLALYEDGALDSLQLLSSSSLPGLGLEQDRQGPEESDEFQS
Summary of the method: as §1

[6] = molecular target: T6, 380 human recombinant protein kinases (Homo sapiens, UniProt P29323); conditions: EphB2(h), read-out: Inhibition rate
T6 construct: purchased Eurofins (Celle Lévescault)
T6 sequence (P29323 19-1055): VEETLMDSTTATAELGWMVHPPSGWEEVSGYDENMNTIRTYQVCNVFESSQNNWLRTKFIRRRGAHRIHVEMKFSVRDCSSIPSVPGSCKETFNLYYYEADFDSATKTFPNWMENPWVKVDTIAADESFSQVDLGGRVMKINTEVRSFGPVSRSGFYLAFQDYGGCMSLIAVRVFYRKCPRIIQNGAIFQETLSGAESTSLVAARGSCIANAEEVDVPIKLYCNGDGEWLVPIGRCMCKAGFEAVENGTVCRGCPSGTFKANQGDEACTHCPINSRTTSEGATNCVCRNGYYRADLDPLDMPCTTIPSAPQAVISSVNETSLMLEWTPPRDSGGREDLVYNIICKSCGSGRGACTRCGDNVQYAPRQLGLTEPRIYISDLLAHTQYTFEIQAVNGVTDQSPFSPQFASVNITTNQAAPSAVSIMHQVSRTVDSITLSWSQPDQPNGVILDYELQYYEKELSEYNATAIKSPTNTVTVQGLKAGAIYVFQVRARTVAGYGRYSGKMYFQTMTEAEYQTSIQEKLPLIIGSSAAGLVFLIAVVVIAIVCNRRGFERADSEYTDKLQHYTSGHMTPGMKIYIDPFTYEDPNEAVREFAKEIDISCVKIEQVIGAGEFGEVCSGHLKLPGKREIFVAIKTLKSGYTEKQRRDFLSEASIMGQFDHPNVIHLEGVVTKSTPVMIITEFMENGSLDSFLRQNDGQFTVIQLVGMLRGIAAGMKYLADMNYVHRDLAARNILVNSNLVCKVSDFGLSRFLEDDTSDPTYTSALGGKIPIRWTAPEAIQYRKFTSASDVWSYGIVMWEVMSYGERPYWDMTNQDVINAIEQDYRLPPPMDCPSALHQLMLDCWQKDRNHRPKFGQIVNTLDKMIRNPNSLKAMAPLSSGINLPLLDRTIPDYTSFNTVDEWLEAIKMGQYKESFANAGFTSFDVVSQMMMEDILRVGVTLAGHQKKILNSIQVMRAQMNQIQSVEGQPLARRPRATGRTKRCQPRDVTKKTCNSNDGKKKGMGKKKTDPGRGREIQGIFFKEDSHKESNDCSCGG
Summary of the method: as §1

[7] = molecular target: T7, 380 human recombinant protein kinases (Homo sapiens, UniProt O60674); conditions: JAK2(h), read-out: Inhibition rate
T7 construct: purchased Eurofins (Celle Lévescault)
T7 sequence (O60674 whole entry): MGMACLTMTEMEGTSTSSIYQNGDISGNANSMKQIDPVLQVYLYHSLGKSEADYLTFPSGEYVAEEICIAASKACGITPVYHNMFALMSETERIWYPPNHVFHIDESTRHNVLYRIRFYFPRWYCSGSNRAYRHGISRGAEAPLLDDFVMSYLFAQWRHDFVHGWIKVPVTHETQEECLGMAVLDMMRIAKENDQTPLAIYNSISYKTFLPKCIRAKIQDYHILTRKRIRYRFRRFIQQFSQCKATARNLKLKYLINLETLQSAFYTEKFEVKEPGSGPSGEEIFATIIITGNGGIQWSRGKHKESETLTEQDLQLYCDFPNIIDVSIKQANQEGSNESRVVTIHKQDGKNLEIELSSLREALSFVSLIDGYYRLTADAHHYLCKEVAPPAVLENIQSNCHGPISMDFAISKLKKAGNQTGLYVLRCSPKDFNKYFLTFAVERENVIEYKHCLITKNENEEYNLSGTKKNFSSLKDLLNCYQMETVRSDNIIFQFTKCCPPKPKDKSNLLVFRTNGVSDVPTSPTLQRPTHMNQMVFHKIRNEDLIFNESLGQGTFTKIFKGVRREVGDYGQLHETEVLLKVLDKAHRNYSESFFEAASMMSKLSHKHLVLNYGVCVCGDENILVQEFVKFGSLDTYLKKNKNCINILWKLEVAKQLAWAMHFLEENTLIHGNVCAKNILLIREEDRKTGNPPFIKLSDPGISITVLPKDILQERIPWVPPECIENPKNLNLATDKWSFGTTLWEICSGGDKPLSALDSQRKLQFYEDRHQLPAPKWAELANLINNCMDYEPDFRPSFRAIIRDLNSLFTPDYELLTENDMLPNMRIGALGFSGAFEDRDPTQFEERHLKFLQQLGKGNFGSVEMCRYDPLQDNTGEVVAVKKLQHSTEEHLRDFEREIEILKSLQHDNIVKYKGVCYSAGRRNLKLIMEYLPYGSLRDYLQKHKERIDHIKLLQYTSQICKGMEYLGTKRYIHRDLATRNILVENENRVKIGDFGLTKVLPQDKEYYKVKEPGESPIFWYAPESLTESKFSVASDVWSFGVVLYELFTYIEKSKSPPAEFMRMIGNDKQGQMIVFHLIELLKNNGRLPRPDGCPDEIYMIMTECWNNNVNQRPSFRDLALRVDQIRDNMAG
Summary of the method: as §1

[8] = molecular target: T8, 380 human recombinant protein kinases (Homo sapiens, UniProt P49840); conditions: GSK3α(h), read-out: Inhibition rate
T8 construct: purchased Eurofins (Celle Lévescault)
Summary of the method: as §1

[9] = molecular target: T9, 380 human recombinant protein kinases (Homo sapiens, UniProt P53779); conditions: JNK3(h), read-out: Inhibition rate
T9 construct: purchased Eurofins (Celle Lévescault)
T9 sequence (P53779 whole entry): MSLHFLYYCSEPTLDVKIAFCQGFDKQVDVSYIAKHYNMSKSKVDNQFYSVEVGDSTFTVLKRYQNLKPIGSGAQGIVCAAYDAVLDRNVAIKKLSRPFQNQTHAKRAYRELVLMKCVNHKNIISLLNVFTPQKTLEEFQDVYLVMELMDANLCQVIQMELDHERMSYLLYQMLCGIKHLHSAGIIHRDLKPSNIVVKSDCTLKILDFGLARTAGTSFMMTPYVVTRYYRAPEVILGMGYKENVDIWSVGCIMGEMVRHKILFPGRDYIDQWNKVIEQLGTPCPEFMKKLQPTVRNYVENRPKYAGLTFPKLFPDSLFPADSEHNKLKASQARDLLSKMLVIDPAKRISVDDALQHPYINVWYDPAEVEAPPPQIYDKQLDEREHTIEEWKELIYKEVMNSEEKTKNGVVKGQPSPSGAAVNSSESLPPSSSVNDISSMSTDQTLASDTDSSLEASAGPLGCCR
Summary of the method: as §1

[10] = molecular target: T10, 380 human recombinant protein kinases (Homo sapiens, UniProt P43405); conditions: Syk(h), read-out: Inhibition rate (%)
T10 construct: purchased Eurofins (Celle Lévescault)
Summary of the method: as §1

[11] = molecular target: T11, 380 human recombinant protein kinases (Homo sapiens, UniProt P10721); conditions: cKit(h), read-out: Inhibition rate
T11 construct: purchased Eurofins (Celle Lévescault)
T11 sequence (P10721 26-976): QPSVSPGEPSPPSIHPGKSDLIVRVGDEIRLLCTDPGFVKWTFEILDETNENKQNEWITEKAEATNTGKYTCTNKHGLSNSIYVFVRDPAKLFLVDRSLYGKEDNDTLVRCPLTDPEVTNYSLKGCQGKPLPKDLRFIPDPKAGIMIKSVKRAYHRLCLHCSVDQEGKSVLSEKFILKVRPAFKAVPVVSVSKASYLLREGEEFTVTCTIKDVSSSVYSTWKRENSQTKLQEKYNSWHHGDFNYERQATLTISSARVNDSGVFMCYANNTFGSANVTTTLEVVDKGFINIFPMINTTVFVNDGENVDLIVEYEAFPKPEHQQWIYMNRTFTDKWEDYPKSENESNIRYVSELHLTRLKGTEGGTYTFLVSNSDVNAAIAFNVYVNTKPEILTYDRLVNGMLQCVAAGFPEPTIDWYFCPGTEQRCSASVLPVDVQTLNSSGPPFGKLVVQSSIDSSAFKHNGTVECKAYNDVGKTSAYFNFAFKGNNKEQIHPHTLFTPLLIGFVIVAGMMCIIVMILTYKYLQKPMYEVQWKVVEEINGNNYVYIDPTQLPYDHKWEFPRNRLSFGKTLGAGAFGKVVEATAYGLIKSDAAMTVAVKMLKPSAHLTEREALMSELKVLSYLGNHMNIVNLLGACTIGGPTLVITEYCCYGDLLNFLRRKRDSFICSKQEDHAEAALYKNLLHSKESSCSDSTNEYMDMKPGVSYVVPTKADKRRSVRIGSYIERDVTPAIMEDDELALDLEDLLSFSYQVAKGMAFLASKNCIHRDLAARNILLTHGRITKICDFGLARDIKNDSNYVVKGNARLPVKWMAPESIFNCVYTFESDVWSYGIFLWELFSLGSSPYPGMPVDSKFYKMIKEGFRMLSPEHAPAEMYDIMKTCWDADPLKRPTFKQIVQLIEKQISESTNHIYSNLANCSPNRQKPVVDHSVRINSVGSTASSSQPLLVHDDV
Summary of the method: as §1

[12] = molecular target: T12, 380 human recombinant protein kinases (Homo sapiens, UniProt Q9NSY1); conditions: BIKe(h), read-out: Inhibition rate
T12 construct: purchased Eurofins (Celle Lévescault)
Summary of the method: as §1

[13] = molecular target: T13, 380 human recombinant protein kinases (Homo sapiens, UniProt O75914); conditions: PAK3(h), read-out: Inhibition rate
T13 construct: purchased Eurofins (Celle Lévescault)
Summary of the method: as §1

[14] = molecular target: T14, 380 human recombinant protein kinases (Homo sapiens, UniProt Q86UX6); conditions: STK32C(h), read-out: Inhibition rate (%)
T14 construct: purchased Eurofins (Celle Lévescault)
Summary of the method: as §1

## C=CC(=O)Nc1cc(-c2cc(-c3cc4c([nH]3)CCNC4=O)ccn2)ccc1OC(F)(F)F [compound 11]
[1]; 10 nM
  inhibition at 0.01 µM: 4%
[1]; 100 nM
  inhibition at 0.1 µM: 5%
[1]; 1000 nM
  inhibition at 1 µM: 31%
[2]; 10 nM
  inhibition at 0.01 µM: 10%
[2]; 100 nM
  inhibition at 0.1 µM: 5%
[2]; 1000 nM
  inhibition at 1 µM: 1%
[3]; 10 nM
  inhibition at 0.01 µM: 7%
[3]; 100 nM
  inhibition at 0.1 µM: -1%
[3]; 1000 nM
  inhibition at 1 µM: 6%
[4]; 10 nM
  inhibition at 0.01 µM: 7%
[4]; 100 nM
  inhibition at 0.1 µM: 8%
[4]; 1000 nM
  inhibition at 1 µM: 7%
[5]; 10 nM
  inhibition at 0.01 µM: -1%
[5]; 100 nM
  inhibition at 0.1 µM: 3%
[5]; 1000 nM
  inhibition at 1 µM: 34%
[6]; 10 nM
  inhibition at 0.01 µM: 5%
[6]; 100 nM
  inhibition at 0.1 µM: -2%
[6]; 1000 nM
  inhibition at 1 µM: -14%
[7]; 10 nM
  inhibition at 0.01 µM: -6%
[7]; 100 nM
  inhibition at 0.1 µM: -10%
[7]; 1000 nM
  inhibition at 1 µM: -8%
[8]; 10 nM
  inhibition at 0.01 µM: 15%
[8]; 100 nM
  inhibition at 0.1 µM: -9%
[8]; 1000 nM
  inhibition at 1 µM: 10%
[9]; 10 nM
  inhibition at 0.01 µM: 4%
[9]; 100 nM
  inhibition at 0.1 µM: 6%
[9]; 1000 nM
  inhibition at 1 µM: 38%
[10]; 10 nM
  inhibition at 0.01 µM: 5%
[10]; 100 nM
  inhibition at 0.1 µM: -15%
[10]; 1000 nM
  inhibition at 1 µM: -9%
[11]; 10 nM
  inhibition at 0.01 µM: 1%
[11]; 100 nM
  inhibition at 0.1 µM: -14%
[11]; 1000 nM
  inhibition at 1 µM: 9%
[12]; 10 nM
  inhibition at 0.01 µM: 0%
[12]; 100 nM
  inhibition at 0.1 µM: 18%
[12]; 1000 nM
  inhibition at 1 µM: 48%
[13]; 10 nM
  inhibition at 0.01 µM: -4%
[13]; 100 nM
  inhibition at 0.1 µM: 0%
[13]; 1000 nM
  inhibition at 1 µM: -3%
[14]; 10 nM
  inhibition at 0.01 µM: 0%
[14]; 100 nM
  inhibition at 0.1 µM: 4%
[14]; 1000 nM
  inhibition at 1 µM: 1%
